Data taken from PMC10009787 (ACS Medicinal Chemistry Letters, 2023).
Where two headings read alike, the source gives them in different places.

What was measured:
PDGFRB (PDGFR beta) = PDGFRB (PDGFR beta) (Homo sapiens, UniProt P09619); assay: SelectScreen kinase profiling; assay type: biochemical; conditions: average of duplicate
TTK = TTK (Homo sapiens, UniProt P33981); assay: SelectScreen kinase profiling; assay type: biochemical; conditions: average of duplicate
FRK (PTK5) = FRK (PTK5) (Homo sapiens, UniProt P42685); assay: SelectScreen kinase profiling; assay type: biochemical; conditions: average of duplicate
EGFR (ErbB1) = EGFR (ErbB1) (Homo sapiens, UniProt P00533); assay: SelectScreen kinase profiling / Z′-Lyte kinase assay
Chain of EGFR (ErbB1) (P00533 668-1210 limits assumed): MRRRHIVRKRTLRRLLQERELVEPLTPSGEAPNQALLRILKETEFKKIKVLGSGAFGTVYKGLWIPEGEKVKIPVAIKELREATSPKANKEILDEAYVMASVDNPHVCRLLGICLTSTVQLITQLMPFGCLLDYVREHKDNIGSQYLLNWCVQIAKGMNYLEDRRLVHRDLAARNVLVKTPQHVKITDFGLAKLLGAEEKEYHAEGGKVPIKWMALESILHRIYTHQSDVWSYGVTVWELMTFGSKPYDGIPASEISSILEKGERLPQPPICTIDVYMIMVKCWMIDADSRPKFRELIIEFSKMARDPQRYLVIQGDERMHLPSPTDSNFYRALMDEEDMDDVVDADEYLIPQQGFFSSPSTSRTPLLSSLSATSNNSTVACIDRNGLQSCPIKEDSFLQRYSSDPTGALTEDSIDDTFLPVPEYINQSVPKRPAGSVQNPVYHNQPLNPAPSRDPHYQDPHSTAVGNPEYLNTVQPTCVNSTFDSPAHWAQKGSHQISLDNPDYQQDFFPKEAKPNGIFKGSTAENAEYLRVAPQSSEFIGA

KIT V559D = KIT V559D (Homo sapiens, UniProt P10721, V559D); assay: SelectScreen kinase profiling; assay type: biochemical; conditions: average of duplicate
Chain of KIT V559D (P10721 26-976 V559D): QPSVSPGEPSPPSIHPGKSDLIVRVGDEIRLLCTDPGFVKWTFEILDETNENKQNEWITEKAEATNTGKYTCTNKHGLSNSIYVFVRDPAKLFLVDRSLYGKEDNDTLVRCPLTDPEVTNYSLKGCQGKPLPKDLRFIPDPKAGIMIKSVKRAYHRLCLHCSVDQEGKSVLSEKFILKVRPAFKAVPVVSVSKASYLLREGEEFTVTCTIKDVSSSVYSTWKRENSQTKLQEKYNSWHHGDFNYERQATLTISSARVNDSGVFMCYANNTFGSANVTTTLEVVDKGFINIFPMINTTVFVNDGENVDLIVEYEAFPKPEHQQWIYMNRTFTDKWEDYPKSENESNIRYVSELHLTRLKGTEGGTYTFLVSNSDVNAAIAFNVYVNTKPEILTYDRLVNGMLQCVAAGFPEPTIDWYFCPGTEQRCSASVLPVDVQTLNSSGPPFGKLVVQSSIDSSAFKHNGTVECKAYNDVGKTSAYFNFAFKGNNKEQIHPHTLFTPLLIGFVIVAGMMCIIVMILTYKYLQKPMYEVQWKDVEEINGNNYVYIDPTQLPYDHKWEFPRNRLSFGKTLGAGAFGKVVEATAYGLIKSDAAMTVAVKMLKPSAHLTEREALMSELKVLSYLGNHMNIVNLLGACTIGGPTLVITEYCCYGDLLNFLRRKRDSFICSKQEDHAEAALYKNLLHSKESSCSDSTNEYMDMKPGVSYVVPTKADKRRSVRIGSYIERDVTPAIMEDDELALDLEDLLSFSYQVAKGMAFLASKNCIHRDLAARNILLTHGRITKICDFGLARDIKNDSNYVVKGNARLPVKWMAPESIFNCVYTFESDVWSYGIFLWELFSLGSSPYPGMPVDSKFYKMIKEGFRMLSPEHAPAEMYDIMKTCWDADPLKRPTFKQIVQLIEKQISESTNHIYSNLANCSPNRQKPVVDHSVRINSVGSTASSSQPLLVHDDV

LYN A = LYN A (Homo sapiens, UniProt P07948); assay: SelectScreen kinase profiling; assay type: biochemical; conditions: average of duplicate
PDGFRA (PDGFR alpha) = PDGFRA (PDGFR alpha) (Homo sapiens, UniProt P16234); assay: SelectScreen kinase profiling; assay type: biochemical; conditions: average of duplicate
RIPK2 = RIPK2 (Homo sapiens, UniProt O43353); assay: SelectScreen kinase profiling; assay type: biochemical; conditions: average of duplicate
[1] = target: MAP2K1 (MEK1) S218D S222D (Homo sapiens, UniProt Q02750, S218D/S222D); assay: SelectScreen kinase profiling; assay type: biochemical; conditions: average of duplicate
MAP2K5 (MEK5) = MAP2K5 (MEK5) (Homo sapiens, UniProt Q13163); assay: SelectScreen kinase profiling; assay type: biochemical; conditions: average of duplicate
HCK = HCK (Homo sapiens, UniProt P08631); assay: AssayQuant kinact/Ki profiling, PhosphoSens CSox-based kinetic assay
Chain of HCK (P08631 whole entry): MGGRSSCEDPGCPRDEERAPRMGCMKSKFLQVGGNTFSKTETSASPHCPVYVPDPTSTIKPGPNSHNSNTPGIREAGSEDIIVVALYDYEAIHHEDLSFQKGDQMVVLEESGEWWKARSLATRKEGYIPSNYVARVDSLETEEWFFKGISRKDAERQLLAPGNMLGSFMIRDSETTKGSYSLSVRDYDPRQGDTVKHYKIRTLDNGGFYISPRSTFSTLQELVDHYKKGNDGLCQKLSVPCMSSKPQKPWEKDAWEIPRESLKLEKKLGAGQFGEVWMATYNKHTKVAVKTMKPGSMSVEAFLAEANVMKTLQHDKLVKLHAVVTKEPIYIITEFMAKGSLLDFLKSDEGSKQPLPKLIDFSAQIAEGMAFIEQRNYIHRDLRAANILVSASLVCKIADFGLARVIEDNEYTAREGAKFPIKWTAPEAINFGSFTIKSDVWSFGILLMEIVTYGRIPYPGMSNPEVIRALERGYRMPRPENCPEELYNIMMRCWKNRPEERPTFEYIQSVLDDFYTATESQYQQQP

BLK = BLK (Homo sapiens, UniProt P51451); assay: as above; assay type: biochemical; design: purchased ThermoFisher / Life Technologies SelectScreen PV3683
Chain of BLK (P51451 whole entry): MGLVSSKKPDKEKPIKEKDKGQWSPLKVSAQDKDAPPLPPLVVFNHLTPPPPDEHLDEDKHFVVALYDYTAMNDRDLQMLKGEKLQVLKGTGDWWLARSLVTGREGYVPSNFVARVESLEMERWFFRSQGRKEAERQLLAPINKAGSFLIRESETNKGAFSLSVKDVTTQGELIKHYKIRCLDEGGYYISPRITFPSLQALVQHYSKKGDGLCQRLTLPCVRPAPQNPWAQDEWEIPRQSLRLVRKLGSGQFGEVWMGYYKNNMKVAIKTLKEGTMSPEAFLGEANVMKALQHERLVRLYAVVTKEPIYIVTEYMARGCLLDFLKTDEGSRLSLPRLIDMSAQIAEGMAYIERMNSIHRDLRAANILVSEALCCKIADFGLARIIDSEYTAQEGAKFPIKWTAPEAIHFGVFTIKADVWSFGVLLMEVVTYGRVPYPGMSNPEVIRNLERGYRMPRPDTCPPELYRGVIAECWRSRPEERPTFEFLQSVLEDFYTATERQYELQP

PTK6 (Brk) = PTK6 (Brk) (Homo sapiens, UniProt Q13882); assay: SelectScreen kinase profiling; assay type: biochemical; conditions: average of duplicate
Chain of PTK6 (Brk) (Q13882 whole entry): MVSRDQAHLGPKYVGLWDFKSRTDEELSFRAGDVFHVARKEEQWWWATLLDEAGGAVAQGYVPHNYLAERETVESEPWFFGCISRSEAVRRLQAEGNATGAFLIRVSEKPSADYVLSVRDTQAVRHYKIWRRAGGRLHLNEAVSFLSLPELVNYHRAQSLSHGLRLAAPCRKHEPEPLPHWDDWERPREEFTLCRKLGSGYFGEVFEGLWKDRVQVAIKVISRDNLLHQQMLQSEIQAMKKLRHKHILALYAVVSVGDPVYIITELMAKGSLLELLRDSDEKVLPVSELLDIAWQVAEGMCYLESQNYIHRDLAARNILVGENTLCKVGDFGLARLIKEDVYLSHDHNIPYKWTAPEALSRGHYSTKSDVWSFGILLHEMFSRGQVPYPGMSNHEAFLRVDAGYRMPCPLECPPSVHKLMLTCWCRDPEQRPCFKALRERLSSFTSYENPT

TEC = TEC (Homo sapiens, UniProt P42680); assay: SelectScreen kinase profiling; assay type: biochemical; conditions: average of duplicate
JAK3 = JAK3 (Homo sapiens, UniProt P52333); assay: SelectScreen kinase profiling / Z′-Lyte kinase assay
Chain of JAK3 (P52333 781-1124 limits assumed): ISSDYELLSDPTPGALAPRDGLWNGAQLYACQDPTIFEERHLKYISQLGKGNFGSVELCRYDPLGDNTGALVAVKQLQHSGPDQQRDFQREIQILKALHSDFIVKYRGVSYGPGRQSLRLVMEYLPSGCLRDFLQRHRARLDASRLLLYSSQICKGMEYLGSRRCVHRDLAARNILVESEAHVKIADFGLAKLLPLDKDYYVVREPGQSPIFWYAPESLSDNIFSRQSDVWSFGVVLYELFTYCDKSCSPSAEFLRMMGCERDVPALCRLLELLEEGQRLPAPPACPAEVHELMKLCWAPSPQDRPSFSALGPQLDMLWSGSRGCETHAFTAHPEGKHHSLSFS

BTK = BTK (Homo sapiens, UniProt Q06187); assay: Western blot, phosphorylation of BTK in Jeko-1 cells; assay type: cell-based; conditions: 2 h
Chain of BTK (Q06187 whole entry, the tested form may be a part): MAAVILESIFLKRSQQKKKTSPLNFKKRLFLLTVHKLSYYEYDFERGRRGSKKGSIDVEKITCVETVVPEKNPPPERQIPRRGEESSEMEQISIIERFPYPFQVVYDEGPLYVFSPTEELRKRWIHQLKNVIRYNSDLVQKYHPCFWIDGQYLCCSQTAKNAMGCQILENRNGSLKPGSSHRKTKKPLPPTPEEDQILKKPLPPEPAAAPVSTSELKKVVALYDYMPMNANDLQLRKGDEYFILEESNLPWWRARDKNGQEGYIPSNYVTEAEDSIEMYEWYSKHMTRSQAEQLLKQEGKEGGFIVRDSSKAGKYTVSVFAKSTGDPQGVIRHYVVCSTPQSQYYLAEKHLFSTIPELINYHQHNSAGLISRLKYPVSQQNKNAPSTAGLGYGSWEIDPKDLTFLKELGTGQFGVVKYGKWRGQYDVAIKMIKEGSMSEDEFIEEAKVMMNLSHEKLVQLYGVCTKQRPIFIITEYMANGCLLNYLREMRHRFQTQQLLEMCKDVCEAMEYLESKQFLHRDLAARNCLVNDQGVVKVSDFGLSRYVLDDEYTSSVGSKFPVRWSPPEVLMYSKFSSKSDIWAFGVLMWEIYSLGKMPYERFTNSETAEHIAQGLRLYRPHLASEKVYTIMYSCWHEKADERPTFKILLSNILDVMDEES

BTK-NanoLuc fusion = target: T1, BTK-NanoLuc fusion (Homo sapiens, UniProt Q06187); assay: NanoBRET cellular engagement of BTK; assay type: cell-based; conditions: for IC50: HEK293 cells
T1 construct: host or cells: HEK293
T1 sequence (Q06187 whole entry, the tested form may be a part): as above
Description: NanoBRET Experiments: HEK293 cells were transfected with the BTK-NanoLuc fusion vector (Promega, #N2501) according to the manufacturer’s protocol. After […]
Promega, #N2501) for 30 minutes. After an additional 30, 60, or 90 minutes the NanoBRET complete substrate plus inhibitor solution (3X solution in Opti-MEM I reduced serum medium, no phenol red, Promega, #N2501) was added to each well.
After 5-10 minutes, the BRET ratio was measured using BMG Labtech CLARIOstar with preloaded filters for donor 450nm/80nm BP (band pass) and acceptor 610nm LP (long

KIT = KIT (Homo sapiens, UniProt P10721); assay: SelectScreen kinase profiling; assay type: biochemical; conditions: average of duplicate
Chain of KIT (P10721 26-976): as the sequence (P10721 26-976 V559D) above, with D534V counted along it

TXK = TXK (Homo sapiens, UniProt P42681); assay: SelectScreen kinase profiling; assay type: biochemical; conditions: average of duplicate
[2] = BTK selectivity from IC50 values
[3] = Z′-Lyte, [ATP] Km app, 1 h incubation, duplicate

Chain of TTK (P33981 whole entry): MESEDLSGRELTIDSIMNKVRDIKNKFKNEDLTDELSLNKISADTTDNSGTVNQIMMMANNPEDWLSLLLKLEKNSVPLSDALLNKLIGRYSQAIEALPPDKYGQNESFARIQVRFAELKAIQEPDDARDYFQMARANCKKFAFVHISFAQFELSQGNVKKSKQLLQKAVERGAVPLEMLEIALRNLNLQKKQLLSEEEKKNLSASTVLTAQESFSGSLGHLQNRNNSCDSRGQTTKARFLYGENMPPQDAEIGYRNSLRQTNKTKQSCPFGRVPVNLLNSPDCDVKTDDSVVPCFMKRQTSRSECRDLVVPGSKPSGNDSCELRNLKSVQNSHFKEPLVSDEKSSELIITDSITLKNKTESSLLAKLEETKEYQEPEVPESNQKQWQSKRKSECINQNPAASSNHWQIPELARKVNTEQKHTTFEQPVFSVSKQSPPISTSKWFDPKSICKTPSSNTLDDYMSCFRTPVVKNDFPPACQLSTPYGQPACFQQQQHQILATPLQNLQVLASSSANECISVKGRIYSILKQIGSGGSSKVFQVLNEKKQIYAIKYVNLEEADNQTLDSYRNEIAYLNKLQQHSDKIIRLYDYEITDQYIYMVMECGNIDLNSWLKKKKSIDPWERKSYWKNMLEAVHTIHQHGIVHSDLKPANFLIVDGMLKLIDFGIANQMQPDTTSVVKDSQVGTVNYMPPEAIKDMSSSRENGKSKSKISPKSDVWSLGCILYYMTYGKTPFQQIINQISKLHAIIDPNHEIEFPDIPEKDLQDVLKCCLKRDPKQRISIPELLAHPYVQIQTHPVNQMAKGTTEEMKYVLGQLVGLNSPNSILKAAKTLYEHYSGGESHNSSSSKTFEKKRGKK

- inhibition at 1 µM (PDGFRB (PDGFR beta)): 0%
- inhibition at 1 µM (TTK): -7%
- inhibition at 1 µM (FRK (PTK5)): 9%
- IC50 (EGFR (ErbB1)): > 10000 nM
- inhibition at 1 µM (EGFR (ErbB1)): 0%
- EGFR, BTK/Kinase (EGFR (ErbB1); [2]): > 781 x
- Hillslope (EGFR (ErbB1); EGFR IC50 curve): 0.96
- EGFR IC50 (EGFR (ErbB1); [3]): no observable activities
- inhibition at 0.000495 µM (EGFR (ErbB1); read-out: % Inhibition Point 1): -4%
- inhibition at 0.00152 µM (EGFR (ErbB1); read-out: % Inhibition Point 1): -1%
- inhibition at 0.00457 µM (EGFR (ErbB1); read-out: % Inhibition Point 1): -2%
- inhibition at 0.0137 µM (EGFR (ErbB1); read-out: % Inhibition Point 1): -1%
- inhibition at 0.0412 µM (EGFR (ErbB1); read-out: % Inhibition Point 1): -6%
- inhibition at 0.123 µM (EGFR (ErbB1); read-out: % Inhibition Point 1): 1%
- inhibition at 0.37 µM (EGFR (ErbB1); read-out: % Inhibition Point 1): 5%
- inhibition at 1.11 µM (EGFR (ErbB1); read-out: % Inhibition Point 1): 10%
- inhibition at 3.33 µM (EGFR (ErbB1); read-out: % Inhibition Point 1): 20%
- inhibition at 10 µM (EGFR (ErbB1); read-out: % Inhibition Point 1): 41%
- inhibition at 0.000495 µM (EGFR (ErbB1); read-out: % Inhibition Point 2): 3%
- inhibition at 0.00152 µM (EGFR (ErbB1); read-out: % Inhibition Point 2): -2%
- inhibition at 0.00457 µM (EGFR (ErbB1); read-out: % Inhibition Point 2): 1%
- inhibition at 0.0137 µM (EGFR (ErbB1); read-out: % Inhibition Point 2): 0%
- inhibition at 0.0412 µM (EGFR (ErbB1); read-out: % Inhibition Point 2): -3%
- inhibition at 0.123 µM (EGFR (ErbB1); read-out: % Inhibition Point 2): -2%
- inhibition at 0.37 µM (EGFR (ErbB1); read-out: % Inhibition Point 2): 1%
- inhibition at 1.11 µM (EGFR (ErbB1); read-out: % Inhibition Point 2): 5%
- inhibition at 3.33 µM (EGFR (ErbB1); read-out: % Inhibition Point 2): 22%
- inhibition at 10 µM (EGFR (ErbB1); read-out: % Inhibition Point 2): 45%
- inhibition at 1 µM (KIT V559D): 1%
- inhibition at 1 µM (LYN A): 13%
- inhibition at 1 µM (PDGFRA (PDGFR alpha)): 3%
- inhibition at 1 µM (RIPK2): 29%
- inhibition at 1 µM [1]: 4%
- inhibition at 1 µM (MAP2K5 (MEK5)): 10%
- kinact (HCK; read-out: HCK kinact): 0.0001 s⁻¹
- kinact/KI (HCK; read-out: HCK kinact/KI): 5960 M⁻¹ s⁻¹
- kinact/KI (BLK; 2.5 nM enzyme, 1000 µM ATP, two step fit): 35000 M⁻¹ s⁻¹
- BLK kinact/Ki (BLK; 2.5 nM enzyme, 1000 µM ATP, two step fit, listed as Dimethyl Analog): 35,500 M^-1S^-1
- kinact (BLK; fitted value, two step): 0.0021 s⁻¹
- inhibition at 1 µM (PTK6 (Brk)): 69%
- inhibition at 1 µM (TEC): 91%
- IC50 (JAK3): > 10000 nM
- inhibition at 1 µM (JAK3): -7%
- JAK3, BTK/Kinase (JAK3; [2]): > 781 x
- Hillslope (JAK3; JAK3 IC50 curve): 0.86
- JAK3 IC50 (JAK3; [3]): no observable activities
- inhibition at 0.000495 µM (JAK3; read-out: % Inhibition Point 1): 4%
- inhibition at 0.00152 µM (JAK3; read-out: % Inhibition Point 1): -1%
- inhibition at 0.00457 µM (JAK3; read-out: % Inhibition Point 1): 2%
- inhibition at 0.0137 µM (JAK3; read-out: % Inhibition Point 1): 1%
- inhibition at 0.0412 µM (JAK3; read-out: % Inhibition Point 1): 1%
- inhibition at 0.123 µM (JAK3; read-out: % Inhibition Point 1): 2%
- inhibition at 0.37 µM (JAK3; read-out: % Inhibition Point 1): 3%
- inhibition at 1.11 µM (JAK3; read-out: % Inhibition Point 1): 6%
- inhibition at 3.33 µM (JAK3; read-out: % Inhibition Point 1): 17%
- inhibition at 10 µM (JAK3; read-out: % Inhibition Point 1): 32%
- inhibition at 0.000495 µM (JAK3; read-out: % Inhibition Point 2): 1%
- inhibition at 0.00152 µM (JAK3; read-out: % Inhibition Point 2): -1%
- inhibition at 0.00457 µM (JAK3; read-out: % Inhibition Point 2): -1%
- inhibition at 0.0137 µM (JAK3; read-out: % Inhibition Point 2): 1%
- inhibition at 0.0412 µM (JAK3; read-out: % Inhibition Point 2): 3%
- inhibition at 0.123 µM (JAK3; read-out: % Inhibition Point 2): 4%
- inhibition at 0.37 µM (JAK3; read-out: % Inhibition Point 2): 0%
- inhibition at 1.11 µM (JAK3; read-out: % Inhibition Point 2): 11%
- inhibition at 3.33 µM (JAK3; read-out: % Inhibition Point 2): 14%
- inhibition at 10 µM (JAK3; read-out: % Inhibition Point 2): 32%
- pBTK/BTK ratio normalized to the DMSO control (BTK; 1 uM): 0.37
- pBTK/BTK ratio normalized to the DMSO control (BTK; 10 uM): 0.31
- pBTK/BTK ratio normalized to the DMSO control (BTK; .01 uM): 0.47
- pBTK/BTK ratio normalized to the DMSO control (BTK; .1 uM): 0.36
- NanoBRET HillSlope (BTK-NanoLuc fusion; 30 + 30): -1.148
- NanoBRET HillSlope (BTK-NanoLuc fusion; 30 + 60): -1.118
- NanoBRET HillSlope (BTK-NanoLuc fusion; 30 + 90): -1.419
- NanoBRET HillSlope (BTK-NanoLuc fusion; 30 min Inc): -1.230
- IC50 (BTK-NanoLuc fusion; 30 min): 806 nM
- IC50 (BTK-NanoLuc fusion; 60 min (30 + 30)): 474 nM
- IC50 (BTK-NanoLuc fusion; 90 min (30 + 60)): 341 nM
- IC50 (BTK-NanoLuc fusion; 90 min post compound addition): 314 nM
- IC50 (BTK-NanoLuc fusion; 120 min (30 + 90)): 315 nM
- inhibition at 1 µM (KIT): 1%
- inhibition at 1 µM (TXK): 94%
Structure (SMILES): C=CC(=O)N1CCCC(n2nc(-c3c(C)cc(Oc4ccccc4)cc3C)c3c(N)ncnc32)C1 (stereo in doubt) [Compound 3]
